pIC50: −log10 of the molar value.
Legend:
human TLR9 = human TLR9 (Homo sapiens (Human), UniProt Q9NR96); assay: HEK293-Blue-hTLR-9 cells assay; format: cell-based; conditions: HEK293-Blue-hTLR9 cells, ODN2006 stimulation, 20 hrs, SEAP reporter; read-out: HEK/hTLR9 IC50
Source text: HEK293-Blue-hTLR-9 Cells Assay:
A stable HEK293-Blue-hTLR-9 cell line was purchased from InvivoGen (Cat. #: hkb-htlr9, San Diego, California, USA). These cells were originally designed for studying the stimulation of human TLR9 by monitoring the activation of NF-κB. A SEAP (secreted embryonic alkaline phosphatase) reporter gene was placed under the control of the IFN-β minimal promoter fused to five NF-κB and AP-1-binding sites. The SEAP was induced by activating NF-κB and AP-via stimulating HEK-Blue hTLR9 cells with TLR9 ligands. Therefore the reporter expression was declined by TLR9 antagonist under the stimulation of a ligand, such as ODN2006 (Cat. #: tlrl-2006-1, Invivogen, San Diego, California, USA), for incubation of 20 hrs. The cell culture supernatant SEAP reporter activity was determined using QUANTI-Blue™ kit (Cat. #: rep-qb1, Invivogen, San Diego, California, USA) at a wavelength of 640 nm, a detection medium that turns purple or blue in the presence of alkaline phosphatase.
(§1) HEK293-Blue-hTLR9 cells were incubated at a density of 250,000˜450,000 cells/mL in a volume of 170 μL in a 96-well plate in Dulbecco's Modified Eagle's medium (DMEM) containing 4.5 g/L glucose, 50 U/mL penicillin, […], […], 2 mM L-glutamine, 10% (v/v) heat-inactivated fetal bovine serum with addition of 20 μL test compound in a serial dilution in the presence of final DMSO at 1% and 10 μL of 20 μM ODN2006 in above DMEM, perform incubation under 37° C. in a CO2 incubator for 20 hrs. Then 20 μL of the supernatant from each well was incubated with 180 μL Quanti-blue substrate solution at 37° C. for 2 h and the absorbance was read at 620-655 nm using a spectrophotometer. The signaling pathway that TLR9 activation leads to downstream NF-κB activation has been widely accepted, and therefore similar reporter assay was modified for evaluating TLR9 antagonist.

human TLR8 = human TLR8 (Homo sapiens (Human), UniProt Q9NR97); assay: HEK293-Blue-hTLR-8 cells assay; format: cell-based; conditions: HEK293-Blue-hTLR8 cells, R848 stimulation, 20 hrs, SEAP reporter; read-out: HEK/hTLR8 IC50
Source text: HEK293-Blue-hTLR-8 Cells Assay:
(§2) A stable HEK293-Blue-hTLR-8 cell line was purchased from InvivoGen (Cat. #: hkb-htlr8, San Diego, California, USA). These cells were originally designed for studying the stimulation of human TLR8 by monitoring the activation of NF-κB. A SEAP (secreted embryonic alkaline phosphatase) reporter gene was placed under the control of the IFN-β minimal promoter fused to five NF-κB and AP-1-binding sites. The SEAP was induced by activating NF-κB and AP-1 via stimulating HEK-Blue hTLR8 cells with TLR8 ligands. Therefore the reporter expression was declined by TLR8 antagonist under the stimulation of a ligand, such as R848, for incubation of 20 hrs. The cell culture supernatant SEAP reporter activity was determined using QUANTI-Blue™ kit (Cat. #: rep-Qb1, Invivogen, San Diego, Ca, USA) at a wavelength of 640 nm, a detection medium that turns purple or blue in the presence of alkaline phosphatase.
HEK293-Blue-hTLR8 cells were incubated at a density of 250,000-450,000 cells/mL in a volume of 170 μL in a 96-well plate in Dulbecco's Modified Eagle's medium (DMEM) containing 4.5 g/L glucose, 50 U/mL penicillin, […], […], 2 mM L-glutamine, 10% (v/v) heat-inactivated fetal bovine serum with addition of 20 μL test compound in a serial dilution in the presence of final DMSO at 1% and 10 μL of 60 μM R848 in above DMEM, perform incubation under 37° C. in a CO2 incubator for 20 hrs. Then 20 μL of the supernatant from each well was incubated with 180 μL Quanti-blue substrate solution at 37° C. for […] and the absorbance was read at 620˜655 nm using a spectrophotometer. The signaling pathway that TLR8 activation leads to downstream NF-κB activation has been widely accepted, and therefore similar reporter assay was modified for evaluating TLR8 antagonist.

[1] = Human microsomal stability assay; format: in vitro ADME; conditions: human liver microsomes, 1 μM test compound, 37° C., pH 7.4
Experimental: Human Microsomal Stability Assay
Human liver microsomes (Cat. NO.: 452117, Corning, USA) were preincubated with test compound for 10 minutes at 37° C. in 100 mM potassium phosphate buffer, pH 7.4. The reactions were initiated by adding NADPH regenerating system. The final incubation mixtures contained 1 μM test compound, 0.5 mg/mL liver microsomal protein, 1 mM MgCl2, 1 mM NADP, 1 unit/mL isocitric dehydrogenase and 6 mM isocitric acid in 100 mM potassium phosphate buffer, pH 7.4. After incubation times of 0, 3, 6, 9, 15 and 30 minutes at 37° C., 300 μL of cold ACN (including internal standard) was added to 100 μL incubation mixture to terminate the reaction. Following precipitation and centrifugation, 100 μL supernatant will be taken out and added 300 μL water. The amount of compound remaining in the samples was determined by LC-MS/MS. Controls of no NADPH regenerating system at zero and 30 minutes were also prepared and analyzed. The results were categorized as: low (<7.0 mL/min/kg), medium (7.0-16.2 mL/min/kg) and high (16.2-23.2 mL/min/kg).

human TLR7 = human TLR7 (Homo sapiens (Human), UniProt Q9NYK1); assay: HEK293-Blue-hTLR-7 cells assay; format: cell-based; conditions: HEK293-Blue-hTLR7 cells, R848 stimulation, 20 hrs, SEAP reporter; read-out: HEK/hTLR7 IC50
Source text: HEK293-BLUE-hTLR-7 CELLS ASSAY:
as §2, with “HEK293-Blue-hTLR-7” for “HEK293-Blue-hTLR-8”, “hkb-htlr7,” for “hkb-htlr8,”, “TLR7” for “TLR8”, “hTLR7” for “hTLR8”, “R848 (Resiquimod),” for “R848,”, “rep-qb1,” for “rep-Qb1,”
as §1, with “HEK293-Blue-hTLR7 cells” for “HEK293-Blue-hTLR9 cells”, “μM R848” for “μM ODN2006”, “2 hrs” for “2 h”, “that TLR7” for “that TLR9”, “evaluating TLR7” for “evaluating TLR9”

human TLR8, sequence (Q9NR97 27-1041): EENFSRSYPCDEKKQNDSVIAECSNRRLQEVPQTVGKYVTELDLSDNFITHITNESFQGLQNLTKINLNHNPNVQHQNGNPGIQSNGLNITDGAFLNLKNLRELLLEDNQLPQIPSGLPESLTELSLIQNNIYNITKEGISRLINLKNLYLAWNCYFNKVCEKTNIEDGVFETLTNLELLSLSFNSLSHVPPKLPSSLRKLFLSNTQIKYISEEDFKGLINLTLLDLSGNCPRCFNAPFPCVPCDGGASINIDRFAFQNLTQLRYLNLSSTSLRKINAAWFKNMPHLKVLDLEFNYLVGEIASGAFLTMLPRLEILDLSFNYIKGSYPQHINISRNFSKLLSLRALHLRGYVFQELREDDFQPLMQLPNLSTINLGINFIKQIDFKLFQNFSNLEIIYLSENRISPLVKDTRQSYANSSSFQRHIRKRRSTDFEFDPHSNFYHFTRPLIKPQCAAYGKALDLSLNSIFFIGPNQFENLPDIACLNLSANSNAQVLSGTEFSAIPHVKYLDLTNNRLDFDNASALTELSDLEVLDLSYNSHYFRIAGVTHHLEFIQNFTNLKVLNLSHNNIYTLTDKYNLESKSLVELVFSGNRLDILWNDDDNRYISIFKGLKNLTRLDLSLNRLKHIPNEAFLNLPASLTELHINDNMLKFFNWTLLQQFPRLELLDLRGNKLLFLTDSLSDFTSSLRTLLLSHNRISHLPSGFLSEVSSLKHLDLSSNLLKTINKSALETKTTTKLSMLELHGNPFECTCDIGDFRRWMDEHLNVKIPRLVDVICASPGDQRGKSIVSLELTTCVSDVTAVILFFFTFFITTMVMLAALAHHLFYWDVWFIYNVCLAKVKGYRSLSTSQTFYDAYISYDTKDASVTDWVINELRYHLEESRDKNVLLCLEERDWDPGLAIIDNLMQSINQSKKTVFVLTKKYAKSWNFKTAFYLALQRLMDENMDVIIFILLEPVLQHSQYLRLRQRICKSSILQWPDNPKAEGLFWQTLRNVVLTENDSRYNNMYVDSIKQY
human TLR9, sequence (Q9NR96 26-1032): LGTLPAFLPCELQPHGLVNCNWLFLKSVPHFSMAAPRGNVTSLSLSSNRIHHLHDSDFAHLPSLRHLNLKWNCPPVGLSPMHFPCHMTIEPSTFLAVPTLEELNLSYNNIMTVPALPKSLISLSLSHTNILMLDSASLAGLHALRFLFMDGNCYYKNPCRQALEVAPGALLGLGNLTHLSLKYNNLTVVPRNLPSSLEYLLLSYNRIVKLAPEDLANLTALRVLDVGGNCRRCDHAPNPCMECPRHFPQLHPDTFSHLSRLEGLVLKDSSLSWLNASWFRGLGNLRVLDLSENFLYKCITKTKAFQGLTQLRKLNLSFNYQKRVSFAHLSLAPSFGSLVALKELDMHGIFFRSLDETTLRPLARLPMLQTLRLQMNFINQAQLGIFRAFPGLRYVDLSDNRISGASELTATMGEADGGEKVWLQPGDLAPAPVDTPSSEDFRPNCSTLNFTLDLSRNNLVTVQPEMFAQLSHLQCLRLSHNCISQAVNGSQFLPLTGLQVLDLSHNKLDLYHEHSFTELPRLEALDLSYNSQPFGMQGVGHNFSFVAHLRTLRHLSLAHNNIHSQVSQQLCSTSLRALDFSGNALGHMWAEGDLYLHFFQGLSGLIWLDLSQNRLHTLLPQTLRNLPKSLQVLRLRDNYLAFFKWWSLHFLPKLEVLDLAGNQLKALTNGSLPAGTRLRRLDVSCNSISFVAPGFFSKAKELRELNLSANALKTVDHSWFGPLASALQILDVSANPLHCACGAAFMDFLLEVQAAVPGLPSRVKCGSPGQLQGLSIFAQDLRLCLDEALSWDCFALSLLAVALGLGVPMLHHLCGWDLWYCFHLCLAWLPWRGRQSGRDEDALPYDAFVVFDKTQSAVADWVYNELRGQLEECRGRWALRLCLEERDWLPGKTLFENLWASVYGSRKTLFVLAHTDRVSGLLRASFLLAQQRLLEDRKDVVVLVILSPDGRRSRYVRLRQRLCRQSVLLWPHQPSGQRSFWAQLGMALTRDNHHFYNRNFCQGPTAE
human TLR7, sequence (Q9NYK1 27-1049): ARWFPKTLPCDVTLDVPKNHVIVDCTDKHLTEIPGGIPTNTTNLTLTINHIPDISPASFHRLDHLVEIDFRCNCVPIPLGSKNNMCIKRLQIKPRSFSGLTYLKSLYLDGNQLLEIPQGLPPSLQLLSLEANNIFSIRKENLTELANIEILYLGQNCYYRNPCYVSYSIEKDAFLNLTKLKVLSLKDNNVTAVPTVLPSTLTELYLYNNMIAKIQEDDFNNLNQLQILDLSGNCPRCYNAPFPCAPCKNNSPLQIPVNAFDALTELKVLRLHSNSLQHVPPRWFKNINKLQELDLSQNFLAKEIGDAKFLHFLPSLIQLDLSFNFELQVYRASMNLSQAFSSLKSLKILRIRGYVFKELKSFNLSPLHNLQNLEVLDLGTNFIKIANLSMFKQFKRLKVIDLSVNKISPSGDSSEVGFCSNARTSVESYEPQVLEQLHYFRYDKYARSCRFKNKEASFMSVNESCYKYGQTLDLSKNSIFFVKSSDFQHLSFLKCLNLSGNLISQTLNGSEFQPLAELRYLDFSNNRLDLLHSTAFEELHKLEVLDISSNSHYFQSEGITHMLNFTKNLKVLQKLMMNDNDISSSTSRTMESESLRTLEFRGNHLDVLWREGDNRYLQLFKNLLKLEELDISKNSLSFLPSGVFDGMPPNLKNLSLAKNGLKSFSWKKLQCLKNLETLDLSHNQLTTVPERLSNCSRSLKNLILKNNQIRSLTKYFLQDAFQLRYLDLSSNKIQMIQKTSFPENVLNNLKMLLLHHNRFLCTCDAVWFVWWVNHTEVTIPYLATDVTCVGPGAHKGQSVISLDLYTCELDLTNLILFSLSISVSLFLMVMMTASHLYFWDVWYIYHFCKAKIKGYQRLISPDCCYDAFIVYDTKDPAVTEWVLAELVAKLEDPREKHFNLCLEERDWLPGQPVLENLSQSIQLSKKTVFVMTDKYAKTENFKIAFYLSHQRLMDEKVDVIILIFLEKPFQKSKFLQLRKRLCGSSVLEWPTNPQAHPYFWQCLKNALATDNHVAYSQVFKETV

SMILES | pIC50 (human TLR9) | pIC50 (human TLR8) | CL (h) [1] [mL/min/kg] | pIC50 (human TLR7)
C[C@@H]1NCCc2cnc(N[C@@H]3C[C@H]4CN(c5ccc(C#N)c6ncccc56)C[C@@H](C)N4C3)cc21 [Example 9A, 5-[(4R,7R,8aS)-4-methyl-7-[[(5S)-5-methyl-5,6,7,8-tetrahydro-2,6-naphthyridin-3-yl]amino]-3,4,6,7,8,8a-hexahydro-1H-pyrrolo[1,2-a]pyrazin-2-yl]quinoline-8-carbonitrile] | 7.18 | 8.07 | 8.4 | 7.74
C[C@@H]1CN(c2ccc(C#N)c3ncccc23)C[C@@H]2C[C@@H](Nc3cc4c(cn3)CCN[C@@H]4C)CN21 [Example 9B, 5-[(4R,7R,8aS)-4-methyl-7-[[(5R)-5-methyl-5,6,7,8-tetrahydro-2,6-naphthyridin-3-yl]amino]-3,4,6,7,8,8a-hexahydro-1H-pyrrolo[1,2-a]pyrazin-2-yl]quinoline-8-carbonitrile] | 7.38 | 8.33 | 9.6 | 7.88
[2H]c1ccc2c(N3C[C@@H]4C[C@H](N5CC6CCC(C5)N6)CN4[C@H](C)C3)ccc(C#N)c2n1 [Example 16, 2-Deuterio-5-[(4R,7S,8aS)-7-(3,8-diazabicyclo[3.2.1]octan-3-yl)-4-methyl-3,4,6,7,8,8a-hexahydro-1H-pyrrolo[1,2-a]pyrazin-2-yl]quinoline-8-carbonitrile] | 7.39 | 8.33 | 7.2 | 8.09
[2H]c1ccc2c(N3C[C@@H]4C[C@H](N5CC(C)(N)C5)CN4[C@H](C)C3)ccc(C#N)c2n1 [Example 17, 5-[(4R,7S,8aS)-7-(3-amino-3-methyl-azetidin-1-yl)-4-methyl-3,4,6,7,8,8a-hexahydro-1H-pyrrolo[1,2-a]pyrazin-2-yl]-2-deuterio-quinoline-8-carbonitrile] | 6.76 | 7.83 | – | 7.95
[2H]c1ccc2c(N3C[C@@H]4C[C@H](N5CCC(C)(N)CC5)CN4[C@H](C)C3)ccc(C#N)c2n1 [Example 18, 5-[(4R,7S,8aS)-7-(4-amino-4-methyl-1-piperidyl)-4-methyl-3,4,6,7,8,8a-hexahydro-1H-pyrrolo[1,2-a]pyrazin-2-yl]-2-deuterio-quinoline-8-carbonitrile] | 7.33 | 7.91 | 9.8 | 7.79
[2H]c1ccc2c(N3C[C@@H]4C[C@H](N5CCC(C)(N)C5)CN4[C@H](C)C3)ccc(C#N)c2n1 (stereo partly drawn) [Example 19, 2-Deuterio-5-[(4R,7S,8aS)-7-(3-amino-3-methyl-pyrrolidin-1-yl)-4-methyl-3,4,6,7,8,8a-hexahydro-1H-pyrrolo[1,2-a]pyrazin-2-yl]quinoline-8-carbonitrile] | 6.68 | 8.05 | 8.6 | 7.70
[2H]c1ccc2c(N3C[C@@H]4C[C@H](N5CCC6(CCCNC6)CC5)CN4[C@H](C)C3)ccc(C#N)c2n1 [Example 21, 2-Deuterio-5-[(4R,7S,8aS)-7-(2,9-diazaspiro[5.5]undecan-9-yl)-4-methyl-3,4,6,7,8,8a-hexahydro-1H-pyrrolo[1,2-a]pyrazin-2-yl]quinoline-8-carbonitrile] | 7.35 | 7.99 | – | 7.52
[2H]c1ccc2c(N3C[C@@H]4C[C@H](N5CC(n6ncc7c6CN[C@H](C)C7)C5)CN4[C@H](C)C3)ccc(C#N)c2n1 [Example 22A, 5-[(4R,7S,8aS)-4-methyl-7-[3-[(5R)-5-methyl-4,5,6,7-tetrahydropyrazolo[3,4-c]pyridin-1-yl]azetidin-1-yl]-3,4,6,7,8,8a-hexahydro-1H-pyrrolo[1,2-a]pyrazin-2-yl]-2-deuterio-quinoline-8-carbonitrile] | 7.49 | 7.84 | 8.2 | 7.99
[2H]c1ccc2c(N3C[C@@H]4C[C@H](n5ncc6c5CNCC6)CN4[C@H](C)C3)ccc(C#N)c2n1 [Example 23A, 2-Deuterio-5-[(4R,7S,8aS)-4-methyl-7-(4,5,6,7-tetrahydropyrazolo[3,4-c]pyridin-1-yl)-3,4,6,7,8,8a-hexahydro-1H-pyrrolo[1,2-a]pyrazin-2-yl]quinoline-8-carbonitrile] | 6.39 | 7.86 | 8.1 | 7.98
[2H]c1ccc2c(N3C[C@@H]4C[C@H](n5cc6c(n5)CNCC6)CN4[C@H](C)C3)ccc(C#N)c2n1 [Example 23B, 2-deuterio-5-[(4R,7S,8aS)-4-methyl-7-(4,5,6,7-tetrahydropyrazolo[3,4-c]pyridin-2-yl)-3,4,6,7,8,8a-hexahydro-1H-pyrrolo[1,2-a]pyrazin-2-yl]quinoline-8-carbonitrile] | 6.81 | 8.47 | 6.2 | 7.92

From patent US12486273B2 (Hoffmann-La Roche Inc., priority 2019, dated 2025)
